Measurements: ChEMBL document CHEMBL1129474, “Quinazoline antifolates thymidylate synthase inhibitors: lipophilic analogues with modification to the C2-methyl substituent” (J Med Chem, 1996)
pIC50: −log10 of the molar value.

What was measured:
L1210 = assay: In vitro inhibitory activity against L1210 cell growth; format: functional, cell-based; settings: Mus musculus
Thymidylate synthase = Thymidylate synthase (Mus musculus, UniProt P07607); assay: In vitro inhibitory activity against thymidylate synthase partially purified from L1210 mouse leukemia cells; format: cell-based
Chain of Thymidylate synthase (P07607 whole entry): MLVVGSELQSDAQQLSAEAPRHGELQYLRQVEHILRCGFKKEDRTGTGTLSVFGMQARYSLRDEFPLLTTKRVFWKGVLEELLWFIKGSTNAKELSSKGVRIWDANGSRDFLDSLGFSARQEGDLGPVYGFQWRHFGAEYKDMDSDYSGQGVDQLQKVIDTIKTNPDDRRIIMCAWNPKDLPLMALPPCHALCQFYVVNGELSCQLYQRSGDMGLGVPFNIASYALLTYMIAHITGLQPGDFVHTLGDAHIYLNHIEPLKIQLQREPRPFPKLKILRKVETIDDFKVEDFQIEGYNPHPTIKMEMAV

[1] = Relative resistant ratio of compound as L1210:1565 IC50 over L1210 IC50; format: functional

Row | Compound | pIC50 (L1210) | pIC50 (Thymidylate synthase) | Ratio [1]
1 | C#CCN(Cc1cc2c(O)nc(CO)nc2cc1C)c1ccc(C(=O)NCc2cccc([N+](=O)[O-])c2)c(F)c1 | 6.15 | 7.14 | 0.17
2 | C#CCN(Cc1ccc2nc(CSc3nccc(O)n3)nc(O)c2c1)c1ccc(C(=O)NCc2cccc([N+](=O)[O-])c2)cc1 | 4.92 | 5.48 | –
3 | C#CCN(Cc1cc2c(O)nc(CN3CCN(C)CC3)nc2cc1C)c1ccc(C(=O)NCc2cccc([N+](=O)[O-])c2)c(F)c1 | 6.24 | 6.96 | 1.1
4 | C#CCN(Cc1ccc2nc(COCCOC)nc(O)c2c1)c1ccc(C(=O)NCc2cccc([N+](=O)[O-])c2)cc1 | 5.17 | 6.19 | –
5 | C#CCN(Cc1cc2c(O)nc(CSc3ncccn3)nc2cc1C)c1ccc(C(=O)NCc2cccc([N+](=O)[O-])c2)c(F)c1 | 6.19 | – | 0.65
6 | C#CCN(Cc1ccc2nc(CSc3nccc(N)n3)nc(O)c2c1)c1ccc(C(=O)NCc2cccc([N+](=O)[O-])c2)cc1 | 5.66 | 6.08 | –
7 | C#CCN(Cc1ccc2nc(CSc3nc(N)cc(O)n3)nc(O)c2c1)c1ccc(C(=O)NCc2cccc([N+](=O)[O-])c2)cc1 | 4.85 | 5.98 | –
8 | C#CCN(Cc1cc2c(O)nc(C)nc2cc1C)c1ccc(C(=O)NCc2cccc([N+](=O)[O-])c2)c(F)c1 | 6.59 | – | 1
9 | C#CCN(Cc1cc2c(=O)[nH]c(CN(C)C)nc2cc1C)c1ccc(C(=O)NCc2cccc([N+](=O)[O-])c2)c(F)c1 | – | 6.85 | –
10 | C#CCN(Cc1ccc2nc(CC#N)nc(O)c2c1)c1ccc(C(=O)NCc2cccc([N+](=O)[O-])c2)cc1 | 4.96 | 6.42 | –
11 | Cc1nc2cc(C)c(CN(C)c3ccc(C(=O)NCc4cccc([N+](=O)[O-])c4)c(F)c3)cc2c(=O)[nH]1 | 7.12 | 7.25 | –
12 | C#CCN(Cc1ccc2nc(CN)nc(O)c2c1)c1ccc(C(=O)NCc2cccc([N+](=O)[O-])c2)cc1 | < 4.70 | < 5.77 | –
13 | Cc1cc2nc(CN3CCN(C)CC3)nc(O)c2cc1CN(C)c1ccc(C(=O)NC(CCC(=O)O)C(=O)O)c(F)c1 (configuration not stated) | < 4.70 | 7.55 | –
14 | C#CCN(Cc1ccc2nc(C)nc(O)c2c1)c1ccc(C(=O)NCc2cccc([N+](=O)[O-])c2)cc1 | 5.85 | – | 0.3
15 | C#CCN(Cc1ccc2nc(CN3CCN(C)CC3)nc(O)c2c1)c1ccc(C(=O)NCc2cccc([N+](=O)[O-])c2)cc1 | 5.28 | 6.05 | –
16 | C#CCN(Cc1ccc2nc(CCl)nc(O)c2c1)c1ccc(C(=O)NCc2cccc([N+](=O)[O-])c2)cc1 | 5.62 | 5.92 | –
17 | C#CCN(Cc1ccc2nc(CN(C)C)nc(O)c2c1)c1ccc(C(=O)NCc2cccc([N+](=O)[O-])c2)cc1 | 5.57 | 6.21 | –

Row | Compound | pIC50 (L1210) | pIC50 (Thymidylate synthase) | Ratio [1]
18 | C#CCN(Cc1ccc2nc(CO)nc(O)c2c1)c1ccc(C(=O)NCc2cccc([N+](=O)[O-])c2)cc1 | 5.32 | 6.52 | –
19 | C#CCN(Cc1ccc2nc(CNS(C)(=O)=O)nc(O)c2c1)c1ccc(C(=O)NCc2cccc([N+](=O)[O-])c2)cc1 | < 4.70 | 6.74 | –
20 | C#CCN(Cc1ccc2nc(CN(C)CCN(C)C)nc(O)c2c1)c1ccc(C(=O)NCc2cccc([N+](=O)[O-])c2)cc1 | 5.30 | 6.09 | –
21 | C#CCN(Cc1ccc2nc(CSc3ncccn3)nc(O)c2c1)c1ccc(C(=O)NCc2cccc([N+](=O)[O-])c2)cc1 | 5.70 | 6.32 | –
22 | C#CCN(Cc1cc2c(O)nc(CN3CCOCC3)nc2cc1C)c1ccc(C(=O)NCc2cccc([N+](=O)[O-])c2)c(F)c1 | 6.47 | 7.00 | 1.1
23 | C#CCN(Cc1cc2c(O)nc(CN(C)CCN(C)C)nc2cc1C)c1ccc(C(=O)NCc2cccc([N+](=O)[O-])c2)c(F)c1 | 6.02 | 6.70 | –
24 | C#CCN(Cc1cc2c(O)nc(CN(CCO)CCO)nc2cc1C)c1ccc(C(=O)NCc2cccc([N+](=O)[O-])c2)c(F)c1 | 5.11 | 6.80 | –
25 | C#CCN(Cc1cc2c(=O)[nH]c(CSc3ncccn3)nc2cc1C)c1ccc(C(=O)NCc2cccc([N+](=O)[O-])c2)c(F)c1 | – | 6.96 | –
26 | Cc1cc2nc(CO)nc(O)c2cc1CN(C)c1ccc(C(=O)NCc2cccc([N+](=O)[O-])c2)c(F)c1 | 6.15 | 7.10 | –
27 | C#CCN(Cc1ccc2nc(CN3CCOCC3)nc(O)c2c1)c1ccc(C(=O)NCc2cccc([N+](=O)[O-])c2)cc1 | 5.72 | 6.42 | –
28 | C#CCN(Cc1ccc2nc(C)nc(O)c2c1)c1ccc(C(=O)NC(Cc2cccc([N+](=O)[O-])c2)C(=O)O)cc1 (configuration not stated) | 5.05 | 8.00 | –
29 | C#CCN(Cc1ccc2nc(CSc3ncccn3)nc(O)c2c1)c1ccc(C(=O)NC(CCC(=O)O)C(=O)O)cc1 (configuration not stated) | 4.00 | – | –
30 | C#CCN(Cc1cc2c(O)nc(CN(C)C)nc2cc1C)c1ccc(C(=O)NCc2cccc([N+](=O)[O-])c2)c(F)c1 | 6.17 | – | 0.76
31 | Cc1cc2nc(CN(C)C)nc(O)c2cc1CN(C)c1ccc(C(=O)NCc2cccc([N+](=O)[O-])c2)c(F)c1 | 6.24 | 7.08 | –
32 | C#CCN(Cc1ccc2nc(C)nc(O)c2c1)c1ccc(C(=O)NC(CCC(=O)O)C(=O)O)cc1 (configuration not stated) | 6.82 | – | –
33 | C#CCN(Cc1ccc2nc(CNC)nc(O)c2c1)c1ccc(C(=O)NCc2cccc([N+](=O)[O-])c2)cc1 | 5.11 | 5.38 | –
34 | C#CCN(Cc1ccc2nc(CN3CCC(O)C3)nc(O)c2c1)c1ccc(C(=O)NCc2cccc([N+](=O)[O-])c2)cc1 (configuration not stated) | 5.05 | 6.22 | –
